These results are taken from patent publication US8501946B2 (Glaxo Group Limited, priority 2009, dated 2013).

The target in this test is T1, human recombinant P2X7 receptors (Homo sapiens, UniProt Q99572).
T1 construct: expressed in transfected cells
T1 sequence (Q99572 1-595): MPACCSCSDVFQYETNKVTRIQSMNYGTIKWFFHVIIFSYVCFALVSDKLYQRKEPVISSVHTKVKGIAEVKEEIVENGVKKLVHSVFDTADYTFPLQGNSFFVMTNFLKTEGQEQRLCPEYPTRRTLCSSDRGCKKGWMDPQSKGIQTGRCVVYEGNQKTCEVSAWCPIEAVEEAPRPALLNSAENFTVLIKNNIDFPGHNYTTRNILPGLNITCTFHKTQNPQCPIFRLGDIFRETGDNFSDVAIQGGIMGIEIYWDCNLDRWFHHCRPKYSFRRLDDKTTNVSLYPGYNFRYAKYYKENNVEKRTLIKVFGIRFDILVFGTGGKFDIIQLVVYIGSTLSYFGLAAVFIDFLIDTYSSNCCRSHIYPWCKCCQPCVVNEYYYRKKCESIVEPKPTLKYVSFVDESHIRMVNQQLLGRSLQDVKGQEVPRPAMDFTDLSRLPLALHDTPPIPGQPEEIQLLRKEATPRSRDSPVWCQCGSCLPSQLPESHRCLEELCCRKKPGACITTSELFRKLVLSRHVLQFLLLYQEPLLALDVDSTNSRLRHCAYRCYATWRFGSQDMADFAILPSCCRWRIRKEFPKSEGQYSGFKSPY
The experiment in a line: Ethidium Accumulation Assay 1 (HEK293 cells, ATP-induced ethidium uptake). In kind it is cell-based. The settings on record: HEK293 cells expressing human P2X7; 1 mM ATP; sometimes mean of more than one measurement; read-out: Assay 1 (antagonist pIC50 for blocking ATP responses) (converted).

Turning to `O=C(c1ccc(F)cc1Cl)N1CCn2c(nnc2-c2cccc(F)n2)C1` [Example 41, 7-[(2-chloro-4-fluorophenyl)carbonyl]-3-(6-fluoro-2-pyridinyl)-5,6,7,8-tetrahydro[1,2,4]triazolo [4,3-a]pyrazine], the IC50 is < 501 nM.
On to `O=C(c1cccc(C(F)(F)F)c1Cl)N1CCn2c(nnc2C(F)(F)F)C1` [Example 2, 7-{[2-chloro-3-(trifluoromethyl)phenyl]carbonyl}-3-(trifluoromethyl)-5,6,7,8-tetrahydro[1,2,4]triazolo [4,3-a]pyrazine], for which the IC50 was < 100 nM.
With `O=C(c1ccc(F)cc1Cl)N1CCn2c(nnc2-c2cccc3cccnc23)C1` [Example 129, 8-{7-[(2-chloro-4-fluorophenyl)carbonyl]-5,6,7,8-tetrahydro[1,2,4]triazolo[4,3-a]pyrazin-3-yl}quinoline] the figure was < 501 nM; with `Cc1cccc(-c2nnc3n2CCN(C(=O)c2cccc(C(F)(F)F)c2Cl)C3)n1` [Example 26, 7-{[2-chloro-3-(trifluoromethyl)phenyl]carbonyl}-3-(6-methyl-2-pyridinyl)-5,6,7,8-tetrahydro[1,2,4]triazolo [4,3-a]pyrazine], < 10 nM.
The same measure for `O=C(c1ccc(Cl)c(C(F)(F)F)c1)N1CCn2c(nnc2-c2cnccn2)C1` [Example 104, 7-{[4-chloro-3-(trifluoromethyl)phenyl]carbonyl}-3-(2-pyrazinyl)-5,6,7,8-tetrahydro[1,2,4]triazolo [4,3-a]pyrazine]: < 100 nM; for `CCCc1nnc2n1CCN(C(=O)c1cccc(C(F)(F)F)c1Cl)C2` [Example 134, 7-{[2-chloro-3-(trifluoromethyl)phenyl]carbonyl}-3-propyl-5,6,7,8-tetrahydro[1,2,4]triazolo[4,3-a]pyrazine]: < 100 nM; for `O=C(c1c(Cl)cccc1Cl)N1CCn2c(nnc2-c2ccccn2)C1` [Example 89, 7-[(2,6-dichlorophenyl)carbonyl]-3-(2-pyridinyl)-5,6,7,8-tetrahydro[1,2,4]triazolo [4,3-a]pyrazine]: < 501 nM.
The same measure for `O=C(c1cccc(C(F)(F)F)c1Cl)N1CCn2c(nnc2C2CCCCC2)C1` [Example 135, 7-{[2-chloro-3-(trifluoromethyl)phenyl]carbonyl}-3-cyclohexyl-5,6,7,8-tetrahydro[1,2,4]triazolo[4,3-a]pyrazine]: < 100 nM; for `O=C(c1cccc(C(F)(F)F)c1Cl)N1CCn2c(nnc2-c2ccccc2)C1` [Example 13, 7-{[2-Chloro-3-(trifluoromethyl)phenyl]carbonyl}-3-phenyl-5,6,7,8-tetrahydro[1,2,4]triazolo[4,3-a]pyrazine]: < 10 nM.
As for `O=C(c1ccc(F)cc1Cl)N1CCn2c(nnc2-c2cccnc2)C1` [Example 39, 7-[(2-chloro-4-fluorophenyl)carbonyl]-3-(3-pyridinyl)-5,6,7,8-tetrahydro[1,2,4]triazolo [4,3-a]pyrazine], the IC50 was < 100 nM.
With `O=C(c1ccc(F)cc1Cl)N1CCn2c(nnc2-c2ncccc2F)C1` [Example 31, 7-[(2-chloro-4-fluorophenyl)carbonyl]-3-(3-fluoro-2-pyridinyl)-5,6,7,8-tetrahydro[1,2,4]triazolo [4,3-a]pyrazine] the figure was < 10 nM.
With `O=C(c1cccc(C(F)(F)F)c1Cl)N1CCn2c(nnc2N2CCOCC2)C1` [Example 18, 7-{[2-Chloro-3-(trifluoromethyl)phenyl]carbonyl}-3-(4-morpholinyl)-5,6,7,8-tetrahydro[1,2,4]triazolo[4,3-a]pyrazine] the figure was < 501 nM; with `O=C(c1c(F)cccc1Cl)N1CCn2c(nnc2-c2ccccn2)C1` [Example 79, 7-[(2-chloro-6-fluorophenyl)carbonyl]-3-(2-pyridinyl)-5,6,7,8-tetrahydro[1,2,4]triazolo [4,3-a]pyrazine], < 501 nM.
The same measure for `O=C(c1cccc(Cl)c1Cl)N1CCn2c(nnc2-c2ccncn2)C1` [Example 62, 7-[(2,3-dichlorophenyl)carbonyl]-3-(4-pyrimdiinyl)-5,6,7,8-tetrahydro[1,2,4]triazolo [4,3-a]pyrazine]: < 10 nM.
Take `O=C(c1cccc(C(F)(F)F)c1Cl)N1CCn2c(nnc2-c2ccco2)C1` [Example 77, 7-{[2-chloro-3-(trifluoromethyl)phenyl]carbonyl}-3-(2-furanyl)-5,6,7,8-tetrahydro[1,2,4]triazolo[4,3-a]pyrazine]: the IC50 is < 10 nM.
With `O=C(c1ccc(Cl)c(F)c1Cl)N1CCn2c(nnc2-c2ccncn2)C1` [Example 112, 7-[(2,4-Dichloro-3-fluorophenyl)carbonyl]-3-(4-pyrimidinyl)-5,6,7,8-tetrahydro[1,2,4]triazolo[4,3-a]pyrazine] the figure was < 100 nM; with `COc1nnc2n1CCN(C(=O)c1cccc(C(F)(F)F)c1Cl)C2` [Example 17, 7-{[2-Chloro-3-(trifluoromethyl)phenyl]carbonyl}-3-(methyloxy)-5,6,7,8-tetrahydro[1,2,4]triazolo[4,3-a]pyrazine], < 100 nM; with `O=C(c1cccc(C(F)(F)F)c1Cl)N1CCn2c(nnc2-c2ccncc2)C1` [Example 10, 7-{[2-Chloro-3-(trifluoromethyl)phenyl]carbonyl}-3-(4-pyridinyl)-5,6,7,8-tetrahydro[1,2,4]triazolo[4,3-a]pyrazine], < 100 nM.
Regarding `Cn1ccc(-c2nnc3n2CCN(C(=O)c2ccc(F)cc2Cl)C3)n1` [Example 72, 7-[(2-chloro-4-fluorophenyl)carbonyl]-3-(1-methyl-1H-pyrazol-3-yl)-5,6,7,8-tetrahydro[1,2,4]triazolo [4,3-a]pyrazine], the IC50 is < 100 nM.
With `Cc1ccnc(-c2nnc3n2CCN(C(=O)c2cccc(C(F)(F)F)c2Cl)C3)c1` [Example 56, 7-{[2-chloro-3-(trifluoromethyl)phenyl]carbonyl}-3-(4-methyl-2-pyridinyl)-5,6,7,8-tetrahydro[1,2,4]triazolo [4,3-a]pyrazine] the figure was < 10 nM; with `O=C(c1cccc(Cl)c1Cl)N1CCn2c(nnc2-c2ccc(F)cc2)C1` [Example 99, 7-[(2,3-dichlorophenyl)carbonyl]-3-(4-fluorophenyl)-5,6,7,8-tetrahydro[1,2,4]triazolo [4,3-a]pyrazine], < 10 nM; with `O=C(c1ccc(F)cc1C(F)(F)F)N1CCn2c(nnc2-c2ccccn2)C1` [Example 94, 7-{[4-fluoro-2-(trifluoromethyl)phenyl]carbonyl}-3-(2-pyridinyl)-5,6,7,8-tetrahydro[1,2,4]triazolo [4,3-a]pyrazine], < 100 nM.
With `O=C(c1cccc(C(F)(F)F)c1Cl)N1CCn2c(Br)nnc2C1` [Example 1, 3-Bromo-7-{[2-chloro-3-(trifluoromethyl)phenyl]carbonyl}-5,6,7,8-tetrahydro[1,2,4]triazolo[4,3-a]pyrazine] the figure was < 10 nM.
The same measure for `O=C(c1cccc(C(F)(F)F)c1Cl)N1CCn2c(nnc2-c2cccc(F)n2)C1` [Example 53, 7-{[2-chloro-3-(trifluoromethyl)phenyl]carbonyl}-3-(6-fluoro-2-pyridinyl)-5,6,7,8-tetrahydro[1,2,4]triazolo [4,3-a]pyrazine]: < 10 nM; for `Cc1c(C(=O)N2CCn3c(nnc3-c3ncns3)C2)ccc(F)c1F` [Example 202, 7-[(3,4-Difluoro-2-methylphenyl)carbonyl]-3-(1,2,4-thiadiazol-5-yl)-5,6,7,8-tetrahydro[1,2,4]triazolo[4,3-a]pyrazine]: < 100 nM.
